Reference: the supplement of paper PMC10307832

Columns and labels:
Experiment in all cases: relative viability (nuclei count vs DMSO), 5 days (fraction); higher = more cells survive
Hydroxychloroquine = compound: CCN(CCO)CCCC(C)Nc1ccnc2cc(Cl)ccc12 [Hydroxychloroquine]
How it was run: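 Lung cancer cell lines received five library-drug doses (not always all listed) spaced by √10, pinned on vehicle-anchored 1536-well plates after an overnight stay at 37 °C. Five days later, with no medium change, nuclei were Hoechst-stained, imaged at 4× and counted with MetaXpress. Viability is treated-well nuclei relative to vehicle-well nuclei, as a median across plates. Passing plates had control CV below 25% and at least one doubling.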

[1] = compound: CCN(CCO)CCCC(C)Nc1ccnc2cc(Cl)ccc12 [Hydroxychloroquine] + Cc1cc(Nc2cc(N3CCN(C)CC3)nc(Sc3ccc(NC(=O)C4CC4)cc3)n2)n[nH]1 [Tozasertib] (partner 0.1 µM)
How it was run: (§1)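 Relative viability was taken as the ratio of nuclei in treated wells to nuclei in vehicle wells. Lung cancer cell lines in 1536-well plates received compounds by pin tool one day after seeding, either one drug alone or a fixed anchor-drug dose plus five library-drug doses (not always all listed) in √10 steps. Nuclei were counted on 4× images after 5 days of treatment, and values are medians of duplicate plates.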

[2] = compound: CCN(CCO)CCCC(C)Nc1ccnc2cc(Cl)ccc12 [Hydroxychloroquine] + CC1(C)CCC(c2ccc(Cl)cc2)=C(CN2CCN(c3ccc(C(=O)NS(=O)(=O)c4ccc(N[C@H](CCN5CCOCC5)CSc5ccccc5)c(S(=O)(=O)C(F)(F)F)c4)cc3)CC2)C1 [Navitoclax] (partner 0.5 µM)
How it was run: as §1

[3] = compound: CCN(CCO)CCCC(C)Nc1ccnc2cc(Cl)ccc12 [Hydroxychloroquine] + N=C(N)NC(=N)NCCc1ccccc1 [Phenformin] (partner 250 µM)
How it was run: as §1

Cell Line	relative viability (Hydroxychloroquine; 0.5 µM)	relative viability (Hydroxychloroquine; 1.581 µM)	relative viability (Hydroxychloroquine; 5 µM)	relative viability (Hydroxychloroquine; 15.81 µM)	relative viability (Hydroxychloroquine; 50 µM)	relative viability ([1]; first compound 0.5 µM)	relative viability ([1]; first compound 1.581 µM)	relative viability ([1]; first compound 5 µM)	relative viability ([1]; first compound 15.81 µM)	relative viability ([1]; first compound 50 µM)	relative viability ([2]; first compound 0.5 µM)	relative viability ([2]; first compound 1.581 µM)	relative viability ([2]; first compound 5 µM)	relative viability ([2]; first compound 15.81 µM)	relative viability ([2]; first compound 50 µM)	relative viability ([3]; first compound 0.5 µM)	relative viability ([3]; first compound 1.581 µM)	relative viability ([3]; first compound 5 µM)	relative viability ([3]; first compound 15.81 µM)	relative viability ([3]; first compound 50 µM)
201T	0.965	0.974	0.968	0.981	1.04	0.941	0.954	0.951	0.966	1.08	1.22	1.19	1.19	1.19	1.22	0.441	0.428	0.449	0.419	0.526
A549	1.01	0.945	1.03	0.928	1.08	–	–	–	–	–	1.24	1.09	1.26	1.29	1.19	0.154	0.0895	0.15	0.14	0.154
A-427	0.995	0.945	0.964	1	0.968	0.207	0.172	0.2	0.207	0.232	0.875	0.776	0.993	0.919	1.04	0.316	0.293	0.315	0.284	0.229
ABC-1	0.89	0.854	0.856	0.885	0.91	0.162	0.136	0.166	0.172	0.165	–	–	–	–	–	0.244	0.205	0.237	0.192	0.206
BEN	1.04	0.894	0.977	1.06	1.07	0.606	0.465	0.551	0.501	0.622	0.051	0.0669	0.0688	0.0612	0.0766	0.255	0.26	0.234	0.241	0.303
CAL-12T	1.01	0.973	0.957	0.979	1.02	0.342	0.276	0.336	0.296	0.378	1.06	1.22	1.21	1.23	1.23	0.585	0.593	0.587	0.599	0.519
Calu-6	1.04	1.03	1	1.1	1	–	–	–	–	–	0.852	0.883	0.836	0.731	0.823	–	–	–	–	–
EBC-1	1.01	0.897	1.05	0.973	1.13	–	–	–	–	–	0.371	0.387	0.418	0.412	0.374	–	–	–	–	–
IA-LM	0.922	0.971	0.902	0.962	0.959	–	–	–	–	–	0.764	0.79	0.832	0.798	0.847	–	–	–	–	–
LCLC-103H	1.01	0.932	0.998	1	1.01	0.433	0.404	0.541	0.507	0.56	–	–	–	–	–	0.347	0.33	0.341	0.335	0.346
NCI-H358	0.851	0.884	0.88	0.888	0.877	0.097	0.096	0.115	0.108	0.0849	–	–	–	–	–	0.345	0.284	0.314	0.32	0.323
NCI-H522	1.01	0.844	0.95	0.836	0.954	0.524	0.619	0.607	0.632	0.525	–	–	–	–	–	0.647	0.581	0.702	0.717	0.623
NCI-H650	1	0.896	0.741	1.04	0.955	0.736	0.692	0.681	0.763	0.708	–	–	–	–	–	0.479	0.438	0.413	0.455	0.473
NCI-H661	0.966	0.93	0.921	0.976	0.994	0.358	0.32	0.355	0.397	0.349	–	–	–	–	–	0.275	0.259	0.3	0.243	0.254
NCI-H1299	1.02	0.938	1.01	1.02	1.02	–	–	–	–	–	1.05	1.01	1.02	1.05	1.04	–	–	–	–	–
NCI-H1563	0.946	0.744	0.912	0.99	0.966	–	–	–	–	–	–	–	–	–	–	0.677	0.652	0.649	0.635	0.635
NCI-H1648	0.817	1.09	0.775	0.992	0.825	–	0.498	0.684	0.486	0.412	–	–	–	–	–	–	–	–	–	–
NCI-H1703	0.912	0.79	0.946	0.924	0.898	–	–	–	–	–	1.08	0.934	1.02	1.02	1.29	–	–	–	–	–
NCI-H1792	0.945	1.03	0.859	0.783	0.776	–	–	–	–	–	0.509	0.607	0.686	0.367	0.451	0.529	0.261	0.258	0.102	0.371
NCI-H2342	0.986	0.897	0.987	0.991	1.13	0.493	0.467	0.439	0.508	0.627	–	–	–	–	–	0.59	0.588	0.561	0.619	0.645
